Data on 28 compounds can be found in ChEMBL document CHEMBL4483862, “Open-source discovery of chemical leads for next-generation chemoprotective antimalarials” (2018).

In this assay the test system is Plasmodium berghei. As to the kind of experiment: Luciferase/luciferin-expressing antifolate-resistant parasites were used to infect a culture of HepG2 cells that were pre-incubated with compounds. Infected hepatocytes emit light due to the luciferase reaction. Assay results are presented as the percent inhibition of light emission compared to control. […]. In kind it is functional. Conditions: sporozoite; for IC90: read-out: LUCIFERASE INFECTION ASSAY - IC90.

One may read the IC50 as the concentration at which inhibition is half-maximal. In general, IC90 refers to the concentration at which the effect reaches the 90% level. As for `Cc1ccc2[nH]c(-c3ccccc3O)nc2c1`, the IC90 is 1.78 µM. In addition, under “HEPG2TOX_HILL_SLOPE 1.55, HEPG2TOX_R_SQUARED 0.794, PBLUC_HILL_SLOPE 15.6, PBLUC_R_SQUARED 0.425, read-out: LUCIFERASE INFECTION ASSAY - IC50”, the 50% inhibitory concentration (IC50) was found to be 1.54 µM.
In the case of `O=C(Nc1nnc(C(F)(F)F)s1)c1ccc(F)c(Cl)c1`, the IC90 was 4.03 µM. For the same compound, under “HEPG2TOX_HILL_SLOPE 1.54, HEPG2TOX_R_SQUARED 0.943, PBLUC_HILL_SLOPE 14.8, PBLUC_R_SQUARED 0.531, read-out: LUCIFERASE INFECTION ASSAY - IC50”, the IC50 came to 3.48 µM.
`COc1cc(OC)cc(-c2cnc3cnc(-c4ccccc4N(C)C)cn23)c1`: the IC90 turned out to be 3.18 µM. The IC50 (HEPG2TOX_HILL_SLOPE 1.54, HEPG2TOX_R_SQUARED 0.879, PBLUC_HILL_SLOPE 8.17, PBLUC_R_SQUARED 0.657, read-out: LUCIFERASE INFECTION ASSAY - IC50) turned out to be 2.43 µM.
In the case of `CN(C)c1ccc(-c2cnc3cnc(-c4ccc(CO)cc4)cn23)cc1`, the IC90 is above 9.58 µM. Moreover, the IC50 (HEPG2TOX_HILL_SLOPE 1.55, HEPG2TOX_R_SQUARED 0.978, PBLUC_HILL_SLOPE 1.15, PBLUC_R_SQUARED 0.872, read-out: LUCIFERASE INFECTION ASSAY - IC50) came to 1.58 µM.
For the compound `CC1CCCN(c2ccc(C#N)cn2)C1` (stereo unspecified), the IC90 was above 10 µM. Moreover, the IC50 (HEPG2TOX_HILL_SLOPE 1.55, HEPG2TOX_R_SQUARED 0.88, PBLUC_HILL_SLOPE 1.47, PBLUC_R_SQUARED 0.333, read-out: LUCIFERASE INFECTION ASSAY - IC50) is above 10 µM.
As to `CCN(c1ccc(NC(=S)Nc2cccc3ccccc23)cc1)C(C)C`, the IC90 was above 10 µM. Moreover, the IC50 (HEPG2TOX_HILL_SLOPE 1.56, HEPG2TOX_R_SQUARED 0.289, PBLUC_HILL_SLOPE 3.28, PBLUC_R_SQUARED 0.342, read-out: LUCIFERASE INFECTION ASSAY - IC50) turned out to be 5.97 µM.
Take `CCCc1c(C(=O)OCC)cnn1-c1c(Cl)cc(Cl)cc1Cl`: the IC90 is above 9.12 µM. In addition, the IC50 (HEPG2TOX_HILL_SLOPE 1.55, HEPG2TOX_R_SQUARED 0.952, PBLUC_HILL_SLOPE 4.67, PBLUC_R_SQUARED 0.0395, read-out: LUCIFERASE INFECTION ASSAY - IC50) stood at 8.3 µM.
For the compound `c1cncc(-c2nc(Nc3ccc4n[nH]cc4c3)c3ccccc3n2)c1`, the IC90 amounted to 3.39 µM. The 50% inhibitory concentration (IC50) (HEPG2TOX_HILL_SLOPE 1.55, HEPG2TOX_R_SQUARED 0.922, PBLUC_HILL_SLOPE 123, PBLUC_R_SQUARED 0.319, read-out: LUCIFERASE INFECTION ASSAY - IC50) was found to be 3.33 µM.
With `COc1ccccc1-c1ccc2ncc(-c3cccc(NC(C)=O)c3)n2n1`, the IC90 was above 10 µM. Also, the IC50 (HEPG2TOX_HILL_SLOPE 1.56, HEPG2TOX_R_SQUARED 0.888, PBLUC_HILL_SLOPE 1.15, PBLUC_R_SQUARED 0.442, read-out: LUCIFERASE INFECTION ASSAY - IC50) came out at 4.22 µM.
Take `CC(=O)c1cccc(-c2cnc3ccc(-c4ccc5c(c4)OCO5)nn23)c1`: the IC90 came out at 7.88 µM. Besides, the IC50 (HEPG2TOX_HILL_SLOPE 1.55, HEPG2TOX_R_SQUARED 0.983, PBLUC_HILL_SLOPE 1.3, PBLUC_R_SQUARED 0.851, read-out: LUCIFERASE INFECTION ASSAY - IC50) came out at 1.46 µM.
Regarding `O=C(NCCO)c1cccc(-c2ccc3ncc(-c4cccnc4)n3n2)c1`, the IC90 is 3.93 µM. Moreover, the IC50 (HEPG2TOX_HILL_SLOPE 1.56, HEPG2TOX_R_SQUARED 0.733, PBLUC_HILL_SLOPE 4.25, PBLUC_R_SQUARED 0.42, read-out: LUCIFERASE INFECTION ASSAY - IC50) came out at 2.34 µM.
As to `C/C(=N\NC(N)=S)c1csc(-c2ccccc2)n1`, the IC90 is 11.9 µM. Moreover, for the setting “HEPG2TOX_HILL_SLOPE 1.53, HEPG2TOX_R_SQUARED 0.983, PBLUC_HILL_SLOPE 21.6, PBLUC_R_SQUARED 0.0721, read-out: LUCIFERASE INFECTION ASSAY - IC50”, the IC50 worked out at 10.7 µM.
For `O=[N+]([O-])c1ccccc1CS(=O)(=O)c1nc2ccccc2s1`, the IC90 was above 9.87 µM. Also, the IC50 (HEPG2TOX_HILL_SLOPE 1.54, HEPG2TOX_R_SQUARED 0.3, PBLUC_HILL_SLOPE 1.66, PBLUC_R_SQUARED 0.0862, read-out: LUCIFERASE INFECTION ASSAY - IC50) is 5.91 µM.
As to `CCOc1ccc(S(=O)(=O)CC2=NCCc3cc(OC)c(OC)cc32)cc1`, the IC90 is 5.39 µM. Also, the IC50 (HEPG2TOX_HILL_SLOPE 1.55, HEPG2TOX_R_SQUARED 0.854, PBLUC_HILL_SLOPE 1.98, PBLUC_R_SQUARED 0.428, read-out: LUCIFERASE INFECTION ASSAY - IC50) worked out at 1.78 µM.
`COc1cc(C2CC(=O)c3cn[nH]c3C2)cc(OC)c1OC` (stereo unspecified): the IC90 is above 10.9 µM. Also, the half-inhibitory concentration (IC50) (HEPG2TOX_HILL_SLOPE 1.57, HEPG2TOX_R_SQUARED 0.775, PBLUC_HILL_SLOPE 1.9, PBLUC_R_SQUARED 0.199, read-out: LUCIFERASE INFECTION ASSAY - IC50) stood at 5.83 µM.
Regarding `C[C@@H]1OC(O[C@H]2C[C@@H](O)[C@]3(CO)[C@@H]4C(CC[C@]3(O)C2)[C@@]2(O)CC[C@H](C3=CC(=O)OC3)[C@@]2(C)C[C@H]4O)[C@H](O)[C@H](O)[C@H]1O` (stereo partly specified), the concentration for an effect of 90% (IC90) came out at 0.179 µM. In addition, for the setting “HEPG2TOX_HILL_SLOPE 1.56, HEPG2TOX_R_SQUARED 0.89, PBLUC_HILL_SLOPE 1.86, PBLUC_R_SQUARED 0.797, read-out: LUCIFERASE INFECTION ASSAY - IC50”, the IC50 is 0.0548 µM.
For the compound `Cc1ccc(NS(=O)(=O)c2cccc(C(=O)OC(C)C(=O)c3cc(C)n(-c4ccc(Cl)cc4)c3C)c2)cc1` (stereo unspecified), the 90% effect concentration (IC90) stood at 3.6 µM. In addition, the IC50 (HEPG2TOX_HILL_SLOPE 1.57, HEPG2TOX_R_SQUARED 0.97, PBLUC_HILL_SLOPE 17.7, PBLUC_R_SQUARED 0.634, read-out: LUCIFERASE INFECTION ASSAY - IC50) was determined as 3.18 µM.
For `FC(F)(F)Oc1cccc(-c2nc3ccnc(NCCc4ccccn4)c3[nH]2)c1`, the IC90 is 7.15 µM. Further, the IC50 (HEPG2TOX_HILL_SLOPE 1.56, HEPG2TOX_R_SQUARED 0.653, PBLUC_HILL_SLOPE 2.89, PBLUC_R_SQUARED 0.498, read-out: LUCIFERASE INFECTION ASSAY - IC50) amounted to 3.34 µM.
For `COc1cccc(CN(C)S(=O)(=O)NC2CCC(C)CC2)c1` (stereo unspecified), the IC90 was above 10 µM. Further, for the setting “HEPG2TOX_HILL_SLOPE 1.57, HEPG2TOX_R_SQUARED 0.723, PBLUC_HILL_SLOPE 2.26, PBLUC_R_SQUARED 0.44, read-out: LUCIFERASE INFECTION ASSAY - IC50”, the IC50 turned out to be 7.19 µM.
As for `O=C1N(Cc2ccccc2)C(=O)C2(CCN(CC3CC=CCC3)CC2)N1CCc1ccccc1` (stereo unspecified), the IC90 was above 7.21 µM. Besides, the IC50 (HEPG2TOX_HILL_SLOPE 1.57, HEPG2TOX_R_SQUARED 0.788, PBLUC_HILL_SLOPE 4.98, PBLUC_R_SQUARED 0.479, read-out: LUCIFERASE INFECTION ASSAY - IC50) was 4.9 µM.
In the case of `O=C(Nc1ccc(N2CCOCC2)nc1)c1ccc(S(=O)(=O)N2CCCc3ccccc32)cc1`, the IC90 was above 10 µM. Moreover, under “HEPG2TOX_HILL_SLOPE 1.57, HEPG2TOX_R_SQUARED 0.865, PBLUC_HILL_SLOPE 1.66, PBLUC_R_SQUARED 0.608, read-out: LUCIFERASE INFECTION ASSAY - IC50”, the IC50 was 2.98 µM.
Turning to `O=C(Nc1ccc(Oc2ccccc2)cc1)c1csc(C(O)c2cccc(OC(F)(F)F)c2)n1` (stereo unspecified), the concentration for an effect of 90% (IC90) came out at 5.15 µM. For the same compound, the IC50 (HEPG2TOX_HILL_SLOPE 1.57, HEPG2TOX_R_SQUARED 0.929, PBLUC_HILL_SLOPE 3.6, PBLUC_R_SQUARED 0.22, read-out: LUCIFERASE INFECTION ASSAY - IC50) worked out at 2.8 µM.
With `COc1ccc(-c2cnc3cnc(-c4ccccc4)cn23)cc1`, the IC90 is 3.33 µM. The IC50 (HEPG2TOX_HILL_SLOPE 1.56, HEPG2TOX_R_SQUARED 0.972, PBLUC_HILL_SLOPE 1.73, PBLUC_R_SQUARED 0.792, read-out: LUCIFERASE INFECTION ASSAY - IC50) amounted to 0.932 µM.
As to `Cc1cccc(CN2CCC3(CC2)C(=O)N(Cc2ccccn2)C(=O)N3CCc2ccccc2)c1`, the IC90 was above 7.04 µM. The IC50 (HEPG2TOX_HILL_SLOPE 1.55, HEPG2TOX_R_SQUARED 0.857, PBLUC_HILL_SLOPE 4.1, PBLUC_R_SQUARED 0.48, read-out: LUCIFERASE INFECTION ASSAY - IC50) worked out at 5.65 µM.
Turning to `CNc1nc2cnc(Nc3cccc(C)c3)cc2n1-c1cccc(C(F)(F)F)c1`, the IC90 is above 10 µM. In addition, the IC50 (HEPG2TOX_HILL_SLOPE 1.54, HEPG2TOX_R_SQUARED 0.691, PBLUC_HILL_SLOPE 2.02, PBLUC_R_SQUARED 0.694, read-out: LUCIFERASE INFECTION ASSAY - IC50) stood at 4.3 µM.
In the case of `CC(=O)c1cccc(-c2cnc3ccc(-c4cccc(C(N)=O)c4)nn23)c1`, the IC90 was 0.628 µM. In addition, the IC50 (HEPG2TOX_HILL_SLOPE 1.55, HEPG2TOX_R_SQUARED 0.943, PBLUC_HILL_SLOPE 2.62, PBLUC_R_SQUARED 0.854, read-out: LUCIFERASE INFECTION ASSAY - IC50) amounted to 0.271 µM.
Take `Cn1c(Nc2ccccc2)nc2cnc(-c3cccc4ccccc34)cc21`: the IC90 came to 4.66 µM. Further, for the setting “HEPG2TOX_HILL_SLOPE 1.56, HEPG2TOX_R_SQUARED 0.963, PBLUC_HILL_SLOPE 1.41, PBLUC_R_SQUARED 0.827, read-out: LUCIFERASE INFECTION ASSAY - IC50”, the IC50 was 0.98 µM.
Regarding `S=C(Nc1ccccc1)N1CCCN(c2nc3ccc(Cl)cc3s2)CC1`, the IC90 was found to be 3.16 µM. Where the note is “HEPG2TOX_HILL_SLOPE 1.54, HEPG2TOX_R_SQUARED 0.918, PBLUC_HILL_SLOPE 12.4, PBLUC_R_SQUARED 0.732, read-out: LUCIFERASE INFECTION ASSAY - IC50”, the IC50 is 2.65 µM.
